From patent publication US6723733B2, “Sulfonamide and carbamide derivatives of 6(5H)phenanthridinones and their uses” (Guilford Pharmaceuticals, Inc., priority 2000, dated 2004)

Assays:
[1] = tested on: rabbits; settings: cited from earlier work
[2] = tested on: Swiss albino mice; assay: MSU crystal-induced neutrophil recruitment (gout model, peritonitis); type: in vivo, mouse; settings: 45 mg/kg i.p.
Description: Male outbread Swiss albino mice (20-22 g body weight) were purchased from Banton and Kingsman (T.O. strain; Hull, Humberside) and maintained on a standard chow pellet diet with tap water ad libitum and a 12:00 h light/dark cycle. All animals were housed for 1 week prior to experimentation to allow body weight to reach 28-30 g.
1,1,1lb-dihydrobenzopyrano[4,3,2-de]isoquinolin-1-one was dissolved in 100% DMSO at room temperature at a concentration of 45 mg in 2 ml. The compound was then injected into the peritoneal cavity, so as each mouse received a single dose corresponding to 45 mg/2 ml/kg (e.g. 60 μl for a mouse of 30 g). […]
MSU crystal-induced neutrophil recruitment was tested as follows. […] Peritonitis was induced by injection of 3 mg MSU crystals in 0.5 ml PBS (0.1 M, pH 7.4), and the recruitment of neutrophils into the cavity evaluated at the 6 h time point (Getting et al., 1997, J. Pharmacol. Exp. Ther. 283: 123-130). […]
An aliquot (100 μl) of the lavage fluid was then diluted 1:10 in Turk's solution (0.01% crystal violet in 3% acetic acid). The samples were then vortexed and 10 μl of the stained cell solution were placed in a Neubauer haematocymometer and neutrophils numbers counted using a light microscope (Olympus B061). […]
Data are shown for single mice, and also shown as mean±S.E. of (n) mice per group. Statistical differences were determined by ANOVA, plus Bonferroni test. […]

[3] = tested on: male Long-Evans rats; assay: Focal cerebral ischemia (MCA cauterization with temporary bilateral CCA occlusion); type: in vivo, rat; settings: 24 h, mean±SD
Description: Focal cerebral ischemia is produced by cauterization of the right distal MCA (middle cerebral artery) with bilateral temporary common carotid artery occlusion in male Long-Evans rats for 90 minutes. All procedures performed on the animals are approved by the University Institutional Animal Care and Use Committee of the University of Pennsylvania. A total of 42 rats (weights: 230-340 g) obtained from Charles River were used in this study. The animals fasted overnight with free access to water prior to the surgical procedure
Two hours prior to MCA occlusion, varying amounts (control, n=14; 5 mg/kg, n=7; 10 mg/kg, n=7; 20 mg/kg, n=7; and 40 mg/kg, n=7) of the compound, 3,4-dihydro-5-[4-(1-piperidinyl)-butoxy]-1(2H)-isoquinolinone (“DPQ”) were dissolved in dimethyl sulfoxide (DMSO) using a sonicator. A volume of 1.28 ml/kg of the resulting solution was injected intraperitoneally into […].
The rats were then anesthetized with halothane (4% for induction and 0.8%-1.2% for the surgical procedure) in a mixture of 70% nitrous oxide and 30% oxygen. The body temperature was monitored by a rectal probe and maintained at 37.5±0.5° C. with a heating blanket regulated by a homeothermic blanket control unit (Harvard Apparatus Limited, Kent, U.K.). A catheter (PE-50) was placed into the tail artery, and arterial pressure was continuously monitored and recorded on a Grass polygraph recorder (Model 7D, Grass Instruments, Quincy, Mass.). Samples for blood gas analysis (arterial pH, PaO2 and PaCO2) were also taken from the tail artery catheter and measured with a blood gas analyzer (ABL 30, Radiometer, Copenhagen, Denmark). Arterial blood samples were obtained 30 minutes after MCA occlusion.
The head of the animal was positioned in a stereotaxic frame, and a right parietal incision between the right lateral canthus and the external auditory meatus was made. Using a dental drill constantly cooled with saline, a 3 mm burr hole was prepared over the cortex supplied by the right MCA, 4 mm lateral to the sagittal suture and 5 mm caudal to the coronal suture. The dura mater and a thin inner bone layer were kept, care being taken to position the probe over a tissue area devoid of large blood vessels. The flow probe (tip diameter of 1 mm, fiber separation of 0.25 mm) was lowered to the bottom of the cranial burr hole using a micromanipulator. The probe was held stationary by a probe holder secured to the skull with dental cement. The microvascular blood flow in the right parietal cortex was continuously monitored with a laser Doppler flowmeter (FloLab, Moor, Devon, U.K., and Periflux 4001, Perimed, Stockholm, Sweden). […]

Oc1cccc2c(O)nccc12 [1,5-dihydroxyisoquinoline]
reduction in infarct size ([1]; single injection 1 mg/kg): 38-48%

O=C1N=Cc2cccc3c2C1c1ccccc1O3 (centres unmarked) [1,11b-dihydrobenzopyrano[4,3,2-de]isoquinolin-1-one]
inhibition of cell influx vs. the vehicle group ([2]; 6 h after MSU crystals): 55% | Neutrophils (10^6 per mouse), mean ± S.E. ([2]; group C, MSU crystals (3 mg), 6 h, n=8, P < 0.05 vs. vehicle group B (6.30 ± 0.33)): 2.85 ± 0.34 (8) * 10^6 per mouse

NC(=O)c1cccc(N)c1 [3-amino-benzamide]
reduction in infarct size in the heart ([1]; single injection 10 mg/kg, one minute before occlusion or before reperfusion): 32-42%

O=C1NCCc2c(OCCCCN3CCCCC3)cccc21 [DPQ, 3,4-dihydro-5-[4-(1-piperidinyl)-butoxy]-1(2H)-isoquinolinone]
damaged volume (total volume of infarction) ([3]; 5 mg/kg i.p. 2 h before and 2 h after MCA occlusion, control 165.2±34.0, p<0.001): 106.7±23.2 mm^3 | damaged volume (total volume of infarction) ([3]; 10 mg/kg i.p. 2 h before and 2 h after MCA occlusion, control 165.2±34.0 mm^3, p<0.001): 76.4±16.8 mm | damaged volume (total volume of infarction) ([3]; 20 mg/kg i.p. 2 h before and 2 h after MCA occlusion, control 165.2±34.0, p<0.01): 110.2±42.0 mm^3 | damaged volume (total volume of infarction) ([3]; 40 mg/kg i.p. 2 h before and 2 h after MCA occlusion, no significant difference from control 165.2±34.0): 135.6±44.8 mm^3
